From patent publication US9920014B2, “Selective inhibition of bacterial topoisomerase I” (THE FLORIDA INTERNATIONAL BOARD OF TRUSTEES MODESTO A. …, priority 2013, dated 2018)

Key:
[1] = molecular target: human DNA topoisomerase II (Homo sapiens, UniProt P11388); assay: Inhibition assay against human DNA topoisomerase II (plasmid relaxation, agarose gel); assay type: biochemical; conditions: for inhibition of human DNA topoisomerase II activities at 50 μM: 50 μM compound; for IC50: 4 units enzyme, supercoiled pBAD-GFPuv, 30 min 37° C., read-out: IC50 hTopo II
Protocol: Inhibition Assays Against Human DNA Topoisomerase II:
The reaction mixture (25 μl) contained 20 mM Tris-HCl at pH 7.9, 50 mM KAc, 10 mM Mg(Ac)2, 1 mM DTT, 1 μg/mL BSA, 200 ng supercoiled plasmid pBAD-GFPuv, 4 units of Human topoisomerase II, and one of the compounds at a final concentration that ranges from 5 to 50 μM. All components were assembled on ice and incubated for 30 minutes at 37° C. After the incubation, the reactions were terminated by extraction with an equal volume of phenol. The topological state of the DNA samples was analyzed with 1% agarose gel electrophoresis in 1×TAE buffer, pH 7.8. Following electrophoresis, the agarose gel was stained with Ethidium Bromide, destained, and photographed under UV light. The intensity of DNA topoisomers was determined using KODAK 1D Image Analysis Software. The percentage of (−) supercoiled DNA was calculated from a comparison of the intensity of the (−) supercoiled band with the total intensity of all DNA topoisomers. The IC50 was calculated as the amount of the drug for which 50% of the DNA was in a (−) supercoiled state.

E. coli DNA Gyrase = E. coli DNA Gyrase (Escherichia coli, UniProt P0AES4+P0AES6); assay: Inhibition assay against E. coli DNA gyrase (plasmid supercoiling, agarose gel); assay type: biochemical; conditions: 1 to 50 μM compound
Protocol: Inhibition Assays Against E. coli DNA Gyrase:
The reaction mixture (30 μl) contained 35 mM Tris-HCl at pH 7.5, 24 mM KCl, 4 mM MgCl2, 2 mM DTT, 1.75 mM ATP, 5 mM spermidine, 0.1 mg/ml BSA, 6.5% glycerol, 250 ng of the relaxed plasmid pBAD-GFPuv, 0.5 units of E. coli DNA Gyrase, and one of the compounds at a final concentration that ranges from 1 to 50 μM. All components were assembled on ice and incubated for 30 minutes at 37° C. After the incubation, the reactions were terminated by extraction with an equal volume of phenol. The topological state of the DNA samples was analyzed with 1% agarose gel electrophoresis in 1×TAE buffer, pH 7.8. Following electrophoresis, the agarose gel was stained with Ethidium Bromide, destained, and photographed under UV light. The intensity of DNA topoisomers was determined using KODAK 1D Image Analysis Software.

human DNA topoisomerase II, sequence (P11388 whole entry): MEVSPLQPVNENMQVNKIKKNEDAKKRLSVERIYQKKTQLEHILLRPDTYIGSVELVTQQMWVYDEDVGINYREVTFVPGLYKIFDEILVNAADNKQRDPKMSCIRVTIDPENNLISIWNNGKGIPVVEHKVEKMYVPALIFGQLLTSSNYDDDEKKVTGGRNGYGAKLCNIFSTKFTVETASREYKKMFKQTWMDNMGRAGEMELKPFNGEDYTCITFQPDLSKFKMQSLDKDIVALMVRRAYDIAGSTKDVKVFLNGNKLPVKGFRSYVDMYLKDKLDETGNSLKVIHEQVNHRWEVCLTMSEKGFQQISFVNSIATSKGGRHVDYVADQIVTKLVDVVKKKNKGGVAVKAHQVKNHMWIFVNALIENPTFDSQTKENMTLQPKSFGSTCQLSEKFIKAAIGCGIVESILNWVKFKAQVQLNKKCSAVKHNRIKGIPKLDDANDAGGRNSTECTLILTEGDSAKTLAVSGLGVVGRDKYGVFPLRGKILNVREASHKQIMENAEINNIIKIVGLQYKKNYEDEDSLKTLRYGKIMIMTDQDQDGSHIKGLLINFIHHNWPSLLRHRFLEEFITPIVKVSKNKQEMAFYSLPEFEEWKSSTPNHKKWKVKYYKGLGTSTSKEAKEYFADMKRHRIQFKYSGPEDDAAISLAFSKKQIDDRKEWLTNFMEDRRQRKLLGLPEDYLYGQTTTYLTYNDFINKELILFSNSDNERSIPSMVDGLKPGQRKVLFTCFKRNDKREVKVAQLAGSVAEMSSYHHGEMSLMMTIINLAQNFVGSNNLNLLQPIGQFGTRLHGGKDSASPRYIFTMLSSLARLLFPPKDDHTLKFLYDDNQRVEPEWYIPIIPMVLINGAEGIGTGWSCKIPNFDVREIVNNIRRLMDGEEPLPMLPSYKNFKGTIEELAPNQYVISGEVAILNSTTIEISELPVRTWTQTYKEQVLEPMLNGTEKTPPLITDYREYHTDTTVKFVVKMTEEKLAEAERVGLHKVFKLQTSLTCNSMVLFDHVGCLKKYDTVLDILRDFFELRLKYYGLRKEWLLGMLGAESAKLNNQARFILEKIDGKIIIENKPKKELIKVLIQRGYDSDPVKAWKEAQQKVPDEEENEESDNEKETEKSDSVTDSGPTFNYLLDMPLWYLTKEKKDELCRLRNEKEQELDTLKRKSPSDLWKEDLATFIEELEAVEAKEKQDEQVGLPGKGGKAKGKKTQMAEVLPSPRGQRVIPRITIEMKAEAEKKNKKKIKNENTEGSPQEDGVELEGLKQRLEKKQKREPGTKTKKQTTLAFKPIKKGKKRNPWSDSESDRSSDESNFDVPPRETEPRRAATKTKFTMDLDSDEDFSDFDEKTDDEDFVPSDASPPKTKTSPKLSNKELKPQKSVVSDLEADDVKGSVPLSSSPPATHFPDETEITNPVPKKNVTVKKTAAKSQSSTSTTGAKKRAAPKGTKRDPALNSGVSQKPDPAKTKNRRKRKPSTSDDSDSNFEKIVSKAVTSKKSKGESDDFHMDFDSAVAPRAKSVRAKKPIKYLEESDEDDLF
E. coli DNA Gyrase, sequence (P0AES4 whole entry, one chain of several): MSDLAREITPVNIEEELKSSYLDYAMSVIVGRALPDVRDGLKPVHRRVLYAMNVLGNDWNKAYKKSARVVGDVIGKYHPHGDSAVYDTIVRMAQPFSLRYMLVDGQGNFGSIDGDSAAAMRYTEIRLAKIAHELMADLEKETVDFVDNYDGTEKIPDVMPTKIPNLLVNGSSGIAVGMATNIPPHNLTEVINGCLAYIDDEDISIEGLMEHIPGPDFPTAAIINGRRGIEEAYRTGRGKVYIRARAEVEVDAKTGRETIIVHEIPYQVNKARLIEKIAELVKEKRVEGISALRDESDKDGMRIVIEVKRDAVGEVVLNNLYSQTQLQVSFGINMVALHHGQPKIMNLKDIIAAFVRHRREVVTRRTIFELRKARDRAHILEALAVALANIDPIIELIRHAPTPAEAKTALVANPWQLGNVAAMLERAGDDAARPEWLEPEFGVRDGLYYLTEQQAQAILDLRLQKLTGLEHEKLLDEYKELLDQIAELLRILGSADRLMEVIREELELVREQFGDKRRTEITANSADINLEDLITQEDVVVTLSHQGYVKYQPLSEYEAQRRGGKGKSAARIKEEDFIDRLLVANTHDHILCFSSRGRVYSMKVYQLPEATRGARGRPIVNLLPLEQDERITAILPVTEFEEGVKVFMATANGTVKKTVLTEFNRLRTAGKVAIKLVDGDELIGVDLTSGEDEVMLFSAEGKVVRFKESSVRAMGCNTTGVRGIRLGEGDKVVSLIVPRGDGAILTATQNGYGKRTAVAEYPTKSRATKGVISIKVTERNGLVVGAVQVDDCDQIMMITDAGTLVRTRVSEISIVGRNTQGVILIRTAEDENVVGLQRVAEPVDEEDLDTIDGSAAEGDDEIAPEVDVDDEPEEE

C#CCOc1ccc(-c2nc3ccc(-c4nc5ccc(N6CCN(C)CC6)cc5[nH]4)cc3[nH]2)cc1 [DPA 151, 6-(4-methylpiperazin-1-yl)-2′-(4-(prop-2-ynyloxy)phenyl)-1H,3′H-2,5′-bibenzo[d]imidazole]
inhibition of human DNA topoisomerase II activities at 50 μM [1]: partially inhibit | IC50 [1]: 51.6 ± 2.5 µM

CN1CCN(c2ccc3[nH]c(-c4ccc5[nH]c(-c6ccc(O)cc6)nc5c4)nc3c2)CC1 [Hoechst 33258, reference compound]
inhibition of DNA gyrase's activities (E. coli DNA Gyrase): did not inhibit | inhibition of human DNA topoisomerase II activities at 50 μM [1]: completely inhibit | IC50 [1]: 28.9 ± 4.45 µM
